“And” between values parts separate entries of the source, which are not always exact repeats. Equal values may be shown once.
Assays:
[1] = system: MDA-MB-435; experiment: Growth inhibition of human MDA-MB-435 cells assessed as growth percentage at 10 uM incubated for 48 hrs by sulforhodamine B assay relative to control; assay type: functional; conditions: read-out: Activity
[2] = system: NCI-H322M; experiment: Growth inhibition of human NCI-H322M cells assessed as growth percentage at 100 uM incubated for 48 hrs by sulforhodamine B assay relative to control; assay type: functional; conditions: read-out: Activity
[3] = system: UO-31; experiment: Growth inhibition of human UO-31 cells assessed as growth percentage at 100 uM incubated for 48 hrs by sulforhodamine B assay relative to control; assay type: functional; conditions: read-out: Activity
[4] = system: SNB-19; experiment: Growth inhibition of human SNB-19 cells assessed as growth percentage at 0.01 uM incubated for 48 hrs by sulforhodamine B assay relative to control; assay type: functional; conditions: read-out: Activity
[5] = system: HT-29; experiment: Growth inhibition of human HT-29 cells assessed as growth percentage at 10 uM incubated for 48 hrs by sulforhodamine B assay relative to control; assay type: functional; conditions: read-out: Activity
[6] = system: SK-MEL-5; experiment: Growth inhibition of human SK-MEL-5 cells assessed as growth percentage at 100 uM incubated for 48 hrs by sulforhodamine B assay relative to control; assay type: functional; conditions: read-out: Activity
[7] = system: CAKI-1; experiment: Growth inhibition of human CAKI-1 cells assessed as growth percentage at 0.1 uM incubated for 48 hrs by sulforhodamine B assay relative to control; assay type: functional; conditions: read-out: Activity
[8] = system: CCRF-CEM; experiment: Growth inhibition of human CCRF-CEM cells assessed as growth percentage at 0.01 uM incubated for 48 hrs by sulforhodamine B assay relative to control; assay type: functional; conditions: read-out: Activity
[9] = system: LOX IMVI; experiment: Growth inhibition of human LOX IMVI cells incubated for 48 hrs by sulforhodamine B assay; assay type: functional
[10] = system: NCI-H23; experiment: Growth inhibition of human NCI-H23 cells incubated for 48 hrs by sulforhodamine B assay; assay type: functional
[11] = system: SK-OV-3; experiment: Growth inhibition of human SK-OV-3 cells assessed as growth percentage at 100 uM incubated for 48 hrs by sulforhodamine B assay relative to control; assay type: functional; conditions: read-out: Activity
[12] = system: SN12C; experiment: Growth inhibition of human SN12C cells assessed as growth percentage at 0.1 uM incubated for 48 hrs by sulforhodamine B assay relative to control; assay type: functional; conditions: read-out: Activity
[13] = system: A549; experiment: Growth inhibition of human A549/ATCC cells incubated for 48 hrs by sulforhodamine B assay; assay type: functional
[14] = system: SK-OV-3; experiment: Growth inhibition of human SK-OV-3 cells assessed as growth percentage at 10 uM incubated for 48 hrs by sulforhodamine B assay relative to control; assay type: functional; conditions: read-out: Activity
[15] = system: MDA-MB-231; experiment: Growth inhibition of human MDA-MB-231/ATCC cells assessed as growth percentage at 0.01 uM incubated for 48 hrs by sulforhodamine B assay relative to control; assay type: functional; conditions: read-out: Activity
[16] = molecular target: Fibroblast growth factor receptor 2 (Homo sapiens) (UniProt P21802); experiment: Inhibition of human FGFR2 at 10 uM using myelin basic protein as substrate incubated for 40 mins in presence of [gamma33P]ATP by scintillation counting method relative to control
Sequence of Fibroblast growth factor receptor 2 (Homo sapiens) (P21802 22-821 limits assumed): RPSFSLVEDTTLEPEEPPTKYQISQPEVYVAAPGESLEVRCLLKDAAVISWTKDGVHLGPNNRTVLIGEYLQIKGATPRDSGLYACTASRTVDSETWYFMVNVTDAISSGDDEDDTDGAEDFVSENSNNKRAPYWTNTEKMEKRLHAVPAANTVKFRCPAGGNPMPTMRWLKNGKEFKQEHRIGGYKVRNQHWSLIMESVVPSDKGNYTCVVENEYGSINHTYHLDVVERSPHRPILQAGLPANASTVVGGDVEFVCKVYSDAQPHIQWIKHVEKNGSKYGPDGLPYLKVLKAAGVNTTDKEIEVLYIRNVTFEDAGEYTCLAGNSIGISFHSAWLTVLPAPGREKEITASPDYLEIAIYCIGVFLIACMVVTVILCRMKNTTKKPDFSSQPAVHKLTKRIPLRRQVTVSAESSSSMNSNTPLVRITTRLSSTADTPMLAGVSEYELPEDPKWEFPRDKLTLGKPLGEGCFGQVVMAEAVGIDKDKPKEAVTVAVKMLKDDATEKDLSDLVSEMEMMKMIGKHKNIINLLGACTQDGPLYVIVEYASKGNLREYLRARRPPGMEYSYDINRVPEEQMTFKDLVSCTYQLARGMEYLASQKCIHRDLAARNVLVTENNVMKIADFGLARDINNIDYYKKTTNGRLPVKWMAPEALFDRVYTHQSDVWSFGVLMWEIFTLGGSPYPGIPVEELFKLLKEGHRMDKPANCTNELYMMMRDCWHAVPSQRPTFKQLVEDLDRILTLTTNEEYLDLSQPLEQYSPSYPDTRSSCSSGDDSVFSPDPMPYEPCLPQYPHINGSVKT

[17] = system: OVCAR-4; experiment: Growth inhibition of human OVCAR-4 cells assessed as growth percentage at 10 uM incubated for 48 hrs by sulforhodamine B assay relative to control; assay type: functional; conditions: read-out: Activity
[18] = system: NCI-H322M; experiment: Growth inhibition of human NCI-H322M cells assessed as growth percentage at 0.1 uM incubated for 48 hrs by sulforhodamine B assay relative to control; assay type: functional; conditions: read-out: Activity
[19] = system: U-251; experiment: Growth inhibition of human U-251 cells assessed as growth percentage at 0.1 uM incubated for 48 hrs by sulforhodamine B assay relative to control; assay type: functional; conditions: read-out: Activity
[20] = system: UACC-62; experiment: Growth inhibition of human UACC-62 cells assessed as growth percentage at 0.01 uM incubated for 48 hrs by sulforhodamine B assay relative to control; assay type: functional; conditions: read-out: Activity
[21] = system: MCF7; experiment: Growth inhibition of human MCF7 cells assessed as growth percentage at 0.1 uM incubated for 48 hrs by sulforhodamine B assay relative to control; assay type: functional; conditions: read-out: Activity
[22] = system: SN12C; experiment: Growth inhibition of human SN12C cells assessed as growth percentage at 0.01 uM incubated for 48 hrs by sulforhodamine B assay relative to control; assay type: functional; conditions: read-out: Activity
[23] = system: SR; experiment: Growth inhibition of human SR cells assessed as growth percentage at 10 uM incubated for 48 hrs by sulforhodamine B assay relative to control; assay type: functional; conditions: read-out: Activity
[24] = system: HT-29; experiment: Growth inhibition of human HT-29 cells assessed as growth percentage at 0.1 uM incubated for 48 hrs by sulforhodamine B assay relative to control; assay type: functional; conditions: read-out: Activity
[25] = system: OVCAR-3; experiment: Growth inhibition of human OVCAR-3 cells assessed as growth percentage at 100 uM incubated for 48 hrs by sulforhodamine B assay relative to control; assay type: functional; conditions: read-out: Activity
[26] = system: T47D; experiment: Growth inhibition of human T47D cells assessed as growth percentage at 100 uM incubated for 48 hrs by sulforhodamine B assay relative to control; assay type: functional; conditions: read-out: Activity
[27] = system: M14; experiment: Growth inhibition of human M14 cells assessed as growth percentage at 100 uM incubated for 48 hrs by sulforhodamine B assay relative to control; assay type: functional; conditions: read-out: Activity
[28] = system: PC-3; experiment: Growth inhibition of human PC-3 cells incubated for 48 hrs by sulforhodamine B assay; assay type: functional; conditions: for CC50: read-out: LC50 (the source's name)
[29] = system: NCI-H522; experiment: Growth inhibition of human NCI-H522 cells assessed as growth percentage at 100 uM incubated for 48 hrs by sulforhodamine B assay relative to control; assay type: functional; conditions: read-out: Activity
[30] = system: UACC-62; experiment: Growth inhibition of human UACC-62 cells assessed as growth percentage at 0.1 uM incubated for 48 hrs by sulforhodamine B assay relative to control; assay type: functional; conditions: read-out: Activity
[31] = system: 786-0; experiment: Growth inhibition of human 786-0 cells incubated for 48 hrs by sulforhodamine B assay; assay type: functional
[32] = system: CAKI-1; experiment: Growth inhibition of human CAKI-1 cells assessed as growth percentage at 1 uM incubated for 48 hrs by sulforhodamine B assay relative to control; assay type: functional; conditions: read-out: Activity
[33] = system: SNB-75; experiment: Growth inhibition of human SNB-75 cells assessed as growth percentage at 100 uM incubated for 48 hrs by sulforhodamine B assay relative to control; assay type: functional; conditions: read-out: Activity
[34] = system: MOLT-4; experiment: Growth inhibition of human MOLT-4 cells assessed as growth percentage at 100 uM incubated for 48 hrs by sulforhodamine B assay relative to control; assay type: functional; conditions: read-out: Activity
[35] = system: HL-60(TB); experiment: Growth inhibition of human HL-60(TB) cells assessed as growth percentage at 10 uM incubated for 48 hrs by sulforhodamine B assay relative to control; assay type: functional; conditions: read-out: Activity
[36] = system: U-251; experiment: Growth inhibition of human U-251 cells assessed as growth percentage at 0.01 uM incubated for 48 hrs by sulforhodamine B assay relative to control; assay type: functional; conditions: read-out: Activity
[37] = system: T47D; experiment: Growth inhibition of human T47D cells assessed as growth percent at 0.1 uM incubated for 48 hrs by sulforhodamine B assay relative to control; assay type: functional; conditions: read-out: Activity
[38] = system: OVCAR-4; experiment: Growth inhibition of human OVCAR-4 cells assessed as growth percentage at 0.1 uM incubated for 48 hrs by sulforhodamine B assay relative to control; assay type: functional; conditions: read-out: Activity

Work on `Nc1nc2[nH]c(CN3CCN(c4cc(Cl)cc(Cl)c4)CC3)c(CN3CCN(c4cc(Cl)cc(Cl)c4)CC3)c2c(=O)[nH]1` yielded a growth at 10 µM [1] of 8.61%, a growth at 100 µM [2] of -54% and a growth at 100 µM [3] of -57%. The growth at 0.01 µM [4] was 96%, the growth at 10 µM [5] was 33.4% and the growth at 100 µM [6] was -61%. For the same compound, the growth at 0.1 µM [7] was 90%, the growth at 0.01 µM [8] was 99% and the GI50 ([9]; Homo sapiens, LOX IMVI) was 1940 nM. It also gave a TGI ([9]; Homo sapiens, LOX IMVI) of 3570 nM, a GI50 [10] of 2030 nM and a TGI [10] of 3960 nM. The growth at 100 µM [11] was -74%, the growth at 0.1 µM [12] was 99% and the TGI ([13]; Homo sapiens, A549) was 3730 nM. It also gave a GI50 ([13]; Homo sapiens, A549, 48 h) of 1820 nM, a growth at 10 µM [14] of 90.2% and a growth at 0.01 µM [15] of 106%. It also gave an inhibition [16] of -0.49%, a growth at 10 µM [17] of 65.8% and a growth at 0.1 µM [18] of 102%. It also gave a growth at 0.1 µM [19] of 97%, a growth at 0.01 µM [20] of 101% and a growth at 0.1 µM [21] of 90%. It also gave a growth at 0.01 µM [22] of 100%, a growth at 10 µM [23] of 12.1% and a growth at 0.1 µM [24] of 110%. For the same compound, the growth at 100 µM [25] was -84%, the growth at 100 µM [26] was -44% and the growth at 100 µM [27] was -54%. For the same compound, the GI50 [28] was 1760 nM, the TGI [28] was 3890 nM and the CC50 [28] was 8610 nM. For the same compound, the growth at 100 µM [29] was -60%, the growth at 0.1 µM [30] was 102% and the GI50 [31] was 1570 nM. It also gave a TGI [31] of 3180 nM, a growth at 1 µM [32] of 91% and a growth at 100 µM [33] of -76%. The growth at 100 µM [34] was -7%, the growth at 10 µM [35] was 24.4% and the growth at 0.01 µM [36] was 99%. It also gave a growth at 0.1 µM [37] of 90% and a growth at 0.1 µM [38] of 95%.
With `CCCCCCCC(=O)Nc1nc2[nH]c(CN3CCN(Cc4cccc(F)c4)CC3)c(CN3CCN(Cc4cccc(F)c4)CC3)c2c(=O)[nH]1` the growth at 10 µM [1] was -98.1%, the growth at 100 µM [2] was -82% and the growth at 100 µM [3] was -81%. For the same compound, the growth at 0.01 µM [4] was 96%, the growth at 10 µM [5] was -69.7% and the growth at 100 µM [6] was -81%. It also gave a growth at 0.1 µM [7] of 85%, a growth at 0.01 µM [8] of 98% and a GI50 [9] of 200 nM. For the same compound, the LC50 (concentration killing 50% of cells) [9] was 8870 nM and 890 nM, the TGI [9] was 420 nM and the GI50 ([9]; Homo sapiens, LOX IMVI) was 195 nM. The TGI ([9]; Homo sapiens, LOX IMVI) was 416 nM, the GI50 [10] was 1860 nM and the LC50 (50% lethal concentration) [10] was 8020 nM. The TGI [10] was 3860 nM, the growth at 100 µM [11] was -99% and the growth at 0.1 µM [12] was 98%. It also gave a GI50 ([13]; 48 h) of 340 nM, an LC50 ([13]; Homo sapiens, A549) of 4360 nM and a TGI ([13]; Homo sapiens, A549) of 1240 nM. It also gave a GI50 ([13]; Homo sapiens, A549, 48 h) of 343 nM, a growth at 10 µM [14] of -61% and a growth at 0.01 µM [15] of 105%. The inhibition [16] was 25.9%, the growth at 10 µM [17] was -94% and the growth at 0.1 µM [18] was 92%. It also gave a growth at 0.1 µM [19] of 92%, a growth at 0.01 µM [20] of 97% and a growth at 0.1 µM [21] of 87%. It also gave a growth at 0.01 µM [22] of 97%, a growth at 10 µM [23] of -52.8% and a growth at 0.1 µM [24] of 104%. It also gave a growth at 100 µM [25] of -73%, a growth at 100 µM [26] of -68% and a growth at 100 µM [27] of -73%. It also gave a GI50 [28] of 1300 nM, a TGI [28] of 2670 nM and a CC50 [28] of 5470 nM. It also gave a growth at 100 µM [29] of -79%, a growth at 0.1 µM [30] of 100% and a GI50 [31] of 1540 nM. For the same compound, the LC50 (concentration killing 50% of cells) [31] was 5670 nM, the TGI [31] was 2950 nM and the growth at 1 µM [32] was 70%. For the same compound, the growth at 100 µM [33] was -99%, the growth at 100 µM [34] was -7% and the growth at 10 µM [35] was -60.1%. The growth at 0.01 µM [36] was 97%, the growth at 0.1 µM [37] was 88% and the growth at 0.1 µM [38] was 84%.

— ChEMBL document CHEMBL4673219, “Novel 5,6-disubstituted pyrrolo[2,3-d]pyrimidine derivatives as broad spectrum antiproliferative agents: Synthesis, cell based assays, kinase profile and molecular docking study” (Bioorg Med Chem, 2018)
